Results: patent publication US20240327446A1, “DEUTERATED NUCLEOSIDE COMPOUNDS AND USE THEREOF” (MEDSHINE DISCOVERY INC., priority 2022, published 2024)

Key:
[1] = system: human coronavirus (HCoV) 229E; assay: In vitro anti-coronavirus activity test, cytopathic effect (CPE) assay; format: cell-based, human coronavirus (HCoV) 229E in MRC5 cells; details: MRC5, 72 h, read-out: EC50 (median effective concentration)
Description: (§1) To detect the in vitro anti-human coronavirus (HCOV) 229E activity of the compound using the cytopathic effect (CPE) assay, and simultaneously evaluate the cytotoxicity of the compound.
(§2) The test compound was prepared as a 20 mM stock solution using DMSO. The initial testing concentration of the test compound was 50 μM, tested at 8 concentrations with 4-fold gradient dilutions, in duplicate wells. The control compound Remdesivir would be provided by WuXi AppTec. Remdesivir would be tested at 8 concentrations with 3-fold gradient dilutions, in duplicate wells.
(§3) MRC5 cells and coronavirus HCoV 229E were purchased from ATCC. MRC5 cells were cultured in EMEM (Sigma) culture medium supplemented with 10% fetal bovine serum (Excell), 1% double antibiotic (Hyclone), 1% L-glutamine (Gibco), and 1% non-essential amino acids (Gibco). […]
(§4) Cells were seeded in a 96-well microplate at a specific density (Table 1) and cultured overnight in a 5% CO2, 37° C. incubator. […] Cell viability was detected using the CellTiter Glo (Promega) cell viability assay kit. […]
Inhibition rate (%)=(test well reading value−average value of virus control)/(average value of cell control−average value of virus control)×100 […]

[2] = in vitro; format: cell-based; details: human
Description: as §1, §2, §3, §4
Cell viability (%)=(test well reading value−average value of culture medium control)/(average value of cell control−average value of culture medium control)×100 […]

Structure (SMILES): [2H][C@@]1(O)[C@H](O)[C@@H](COC(=O)C(C)C)O[C@@]1(C#N)c1ccc2c(N)ncnn12 [Compound 1]
- EC50 [1]: 220 nM
- CC50 at 3 days [2]: > 50000 nM
